Source: US4410516A, “1-N(αHydroxy-ω-aminoalkanoyl) derivatives of 5,3',4'-trideoxy- or 5,3', 4'-trideoxy-6'-N- methyl- or 5, 3', 4',6"-tetradeoxykannamyci B and production thereof” (Zaidan Hojin Biseibutsu Kagaku Kenkyu Kai, priority 1981, dated 1983)
Converted amounts (≈) assume the structure as drawn. Read-outs that look alike come from different tables or passages of the source.

Assays:
Format in all cases: cell-based
[1] = system: Shigella dysenteriae JS 11910; test: Minimum inhibitory concentration, serial dilution on nutrient agar; conditions: JS11910, 18 h
[2] = system: Salmonella enteritidis 1891; test: as above; conditions: Salmonella enterica, nutrient agar, 37° C., 18 hours incubation, read-out: MIC
Escherichia coli K-12 = test: as above; conditions: K12, nutrient agar, 37° C., 18 hours incubation, read-out: MIC
[3] = system: Pseudomonas aeruginosa 99; test: as above; conditions: Pseudomonas aeruginosa, 99; nutrient agar, 37° C., 18 hours incubation; read-out: MIC
[4] = system: Pseudomonas aeruginosa H11; test: as above; conditions: H11, nutrient agar, 37° C., 18 hours incubation, read-out: MIC
[5] = system: Pseudomonas aeruginosa A3; test: as above; conditions: 37° C., 18 hours incubation
[6] = system: Escherichia coli JR66/W677; test: as above; conditions: JR66/W677, nutrient agar, 37° C., 18 hours incubation, read-out: MIC
[7] = system: Staphylococcus aureus Smith; test: as above; conditions: 37° C., 18 hours incubation
[8] = system: Escherichia coli K-12 LA 290 R56; test: as above; conditions: K12LA290R56, 18 h
[9] = system: Escherichia coli K-12 ML 1410; test: as above
[10] = system: Bacillus cereus ATCC 10702; test: as above; conditions: ATCC10702, nutrient agar, 37° C., 18 hours incubation, read-out: MIC
[11] = system: Pseudomonas aeruginosa H9; test: as above; conditions: H9, nutrient agar, 37° C., 18 hours incubation, read-out: MIC
Escherichia coli NIHJ = test: as above; conditions: nutrient agar, 37° C., 18 hours incubation, read-out: MIC
Bacillus anthracis = test: microbe, parasite or virus in culture; conditions: 18 h
[12] = system: Bacillus subtilis PCI 219; test: Minimum inhibitory concentration, serial dilution on nutrient agar; conditions: PCI219, 37° C., 18 hours incubation
Serratia 4 = test: as above; conditions: 37° C., 18 hours incubation
[13] = system: Staphylococcus aureus AP01; test: as above; conditions: 37° C., 18 hours incubation
[14] = system: Pseudomonas aeruginosa TI-13; test: as above
Salmonella typhi T-63 = test: as above; conditions: Salmonella enterica, 18 h
Serratia SOU = test: as above; conditions: 37° C., 18 hours incubation
[15] = system: Staphylococcus epidermidis 109; test: as above
[16] = system: Pseudomonas aeruginosa PST1; test: as above; conditions: PST1, nutrient agar, 37° C., 18 hours incubation, read-out: MIC
Providencia Pv 16 = test: as above; conditions: PV16, 37° C., 18 hours incubation
Sarcina lutea PCI 1001 = test: as above; conditions: Micrococcus luteus, PCI1001; nutrient agar, 37° C., 18 hours incubation; read-out: MIC
bacteria = test: Antibacterial activity (stated in words)
Proteus vulgaris OX19 = test: Minimum inhibitory concentration, serial dilution on nutrient agar; conditions: 37° C., 18 hours incubation
[17] = system: Escherichia coli K-12 ML 1410 R81; test: as above; conditions: 18 h

Row | Structure (SMILES) | MIC [1] [mg/L] | MIC [2] [mg/L] | MIC (Escherichia coli K-12) [mg/L] | MIC [3] [mg/L] | MIC [4] [mg/L] | MIC [5] [mg/L] | MIC [6] [mg/L] | MIC [7] [mg/L] | MIC [8] [mg/L] | MIC [10] [mg/L] | MIC [11] [mg/L] | MIC (Escherichia coli NIHJ) [mg/L] | MIC (Bacillus anthracis) [mg/L] | MIC [12] [mg/L] | MIC (Serratia 4) [mg/L] | MIC [13] [mg/L] | MIC (Salmonella typhi T-63) [mg/L] | MIC (Serratia SOU) [mg/L] | MIC [16] [mg/L] | MIC (Providencia Pv 16) [mg/L] | also measured
1 | C[C@H]1O[C@H](O[C@@H]2C[C@H](O[C@H]3O[C@H](CN)CC[C@H]3N)[C@@H](N)C[C@H]2N)[C@H](O)[C@@H](N)[C@@H]1O [TetradeoxyKMB, 5,3',4',6"-tetradeoxykanamycin B] | 12.5 (≈ 29.8 µM) | 25 (≈ 59.6 µM) | 25 (≈ 59.6 µM) | 25 (≈ 59.6 µM) | 25 (≈ 59.6 µM) | 3.13 (≈ 7.46 µM) | > 100 | < 0.2 | 100 (≈ 238 µM) | 3.13 (≈ 7.46 µM) | 100 (≈ 238 µM) | 6.25 (≈ 14.9 µM) | 0.39 (≈ 0.93 µM) | < 0.2 | 50 (≈ 119 µM) | 6.25 (≈ 14.9 µM) | 12.5 (≈ 29.8 µM) | > 100 | > 100 | > 100 | MIC ([9]; K12ML1410, 18 h): 12.5 mg/L (≈ 29.8 µM); MIC ([14]; TI13, 18 h): 12.5 mg/L (≈ 29.8 µM); MIC ([15]; Staphylococcus epidermidis, 109, nutrient agar, 37° C., 18 hours incubation, read-out: MIC): 6.25 mg/L (≈ 14.9 µM); MIC (Sarcina lutea PCI 1001): 50 mg/L (≈ 119 µM); antibacterial activity (bacteria): significantly active against some kinds of bacteria; MIC (Proteus vulgaris OX19): 1.56 mg/L (≈ 3.72 µM)
2 | CNC[C@@H]1CC[C@@H](N)[C@@H](O[C@H]2C[C@@H](O[C@H]3O[C@H](CO)[C@@H](O)[C@H](N)[C@H]3O)[C@H](N)C[C@@H]2N)O1 [TrideoxyMKMB, 5,3',4'-trideoxy-6'-N-methylkanamycin B] | 50 (≈ 111 µM) | 25 (≈ 55.6 µM) | 12.5 (≈ 27.8 µM) | 50 (≈ 111 µM) | 25 (≈ 55.6 µM) | 3.13 (≈ 6.96 µM) | 100 (≈ 222 µM) | 0.39 (≈ 0.868 µM) | 25 (≈ 55.6 µM) | 12.5 (≈ 27.8 µM) | 25 (≈ 55.6 µM) | 12.5 (≈ 27.8 µM) | 0.78 (≈ 1.74 µM) | < 0.2 | 50 (≈ 111 µM) | 25 (≈ 55.6 µM) | 6.25 (≈ 13.9 µM) | > 100 | > 100 | > 100 | MIC ([9]; K12ML1410, nutrient agar, 37° C., 18 hours incubation, read-out: MIC): 25 mg/L (≈ 55.6 µM); MIC ([14]; TI13, nutrient agar, 37° C., 18 hours incubation, read-out: MIC): 12.5 mg/L (≈ 27.8 µM); MIC ([15]; Staphylococcus epidermidis, 109, 18 h): 6.25 mg/L (≈ 13.9 µM); MIC [17]: 25 mg/L (≈ 55.6 µM); MIC (Sarcina lutea PCI 1001): 25 mg/L (≈ 55.6 µM); antibacterial activity (bacteria): antibacterial activity higher than that of the 5,3',4'-trideoxykanamycin B especially against some resistant strains; MIC (Proteus vulgaris OX19): 3.13 mg/L (≈ 6.96 µM)
